The record followed here is patent US5801165A, “Antiinflammatory, immunosuppressive and antialleric 16, 17-alkylidioxy-steroids” (Rhone-Poulenc Rorer Limited, priority 1992, dated 1998).

This assay has as its target T1, Rat thymus glucocorticoid receptor (Rattus norvegicus, UniProt P06536).
T1 construct: The supernatant cytosol is used as the source of receptor; from tissue; host or cells: thymus of male adrenalectomised rats, 100,000 g supernatant cytosol
T1 sequence (P06536 1-795): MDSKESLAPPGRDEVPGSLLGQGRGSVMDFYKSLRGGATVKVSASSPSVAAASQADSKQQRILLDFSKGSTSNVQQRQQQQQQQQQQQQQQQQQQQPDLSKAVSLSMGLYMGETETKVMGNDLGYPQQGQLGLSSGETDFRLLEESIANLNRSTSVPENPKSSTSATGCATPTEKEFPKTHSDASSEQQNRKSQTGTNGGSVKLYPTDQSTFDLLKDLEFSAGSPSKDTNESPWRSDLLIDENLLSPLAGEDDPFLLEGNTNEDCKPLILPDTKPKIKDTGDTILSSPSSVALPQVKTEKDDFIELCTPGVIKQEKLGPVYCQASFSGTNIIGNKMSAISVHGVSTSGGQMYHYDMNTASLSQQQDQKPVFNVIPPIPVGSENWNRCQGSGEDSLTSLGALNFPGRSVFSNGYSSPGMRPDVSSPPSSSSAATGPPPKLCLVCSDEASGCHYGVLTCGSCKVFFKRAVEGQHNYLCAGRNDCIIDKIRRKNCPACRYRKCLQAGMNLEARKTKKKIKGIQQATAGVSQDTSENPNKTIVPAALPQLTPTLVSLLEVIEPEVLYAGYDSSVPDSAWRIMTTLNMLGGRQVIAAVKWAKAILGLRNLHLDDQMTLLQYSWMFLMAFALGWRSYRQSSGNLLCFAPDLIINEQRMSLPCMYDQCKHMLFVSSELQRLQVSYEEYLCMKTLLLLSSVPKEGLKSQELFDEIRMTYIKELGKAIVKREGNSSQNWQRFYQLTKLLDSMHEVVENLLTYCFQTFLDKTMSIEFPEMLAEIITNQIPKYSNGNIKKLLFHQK
Kind of assay: Steroid binding to the rat thymus glucocorticoid receptor ([3H] dexamethasone displacement). From the text: GLUCOCORTICOID AGONIST ACTIVITY
STEROID BINDING TO THE RAT THYMUS GLUCOCORTICOID RECEPTOR
Thymi of male adrenalectomised rats are removed and homogenised in 3-(N-morpholino)propanesulphonic acid dithiothreitol buffer, and centrifuged at 100,000 g. The supernatant cytosol is used as the source of receptor. […] Bound [^3 H] dexamethasone is separated from free dexamethasone by a dextran coated charcoal technique and is quantified by liquid scintillation counting.

Setting [1] is: 4 nM [3H] dexamethasone, 24 hours at 4° C., rat thymus cytosol, read-out: IC50 (concentration reducing [3H] dexamethasone binding by 50%).
Where [2] appears, read: read-out: IC50 (concentration reducing [3H] dexamethasone binding by 50%), 4 nM [3H] dexamethasone, 24 hours at 4° C., rat thymus cytosol.

The structures appear in SMILES notation. Read-outs that look alike come from different tables or passages of the source.

Regarding `CS[C@@]12OC(C)(C)O[C@@H]1C[C@H]1[C@@H]3C[C@H](F)C4=CC(=O)C=C[C@]4(C)[C@@]3(F)[C@@H](O)C[C@@]12C` [6α,9α-Difluoro-11β-hydroxy-16α,17α-isopropylidenedioxy-17β-(methylthio)androsta-1,4-dien-3-one], the IC50 under setting [1] came out at 3.2 nM.

`CCC[C@@H]1O[C@@H]2C[C@H]3[C@@H]4CC(=O)C5=CC(=O)C=C[C@]5(C)[C@@]4(F)[C@@H](O)C[C@]3(C)[C@]2(SC)O1` [(20R)-16α,17α-butylidenedioxy-9α-fluoro-11β-hydroxy-17β-(methylthio)androsta-1,4-diene-3,6-dione]: the IC50 under setting [1] amounted to 2.4 nM.

In turn, `CS[C@@]12OC(C)(C)O[C@@H]1C[C@H]1[C@@H]3CCC4=CC(=O)C=C[C@]4(C)[C@@]3(F)[C@@H](O)C[C@@]12C` [9α-Fluoro-11β-hydroxy-16α,17α-isopropylidenedioxy-17β-(methylthio)androsta-1,4-dien-3-one] gave an IC50 of 1.6 nM.

Regarding `C/C=C/[C@@H]1O[C@@H]2C[C@H]3[C@@H]4CCC5=CC(=O)C=C[C@]5(C)[C@@]4(F)[C@@H](O)C[C@]3(C)[C@]2(SC)O1` [(20R)-16α,17α-[(E)-2-Butenylidenedioxy]-9α-fluoro-11β-hydroxy-17β-(methylthio)androsta-1,4-dien-3-one], under setting [1], the IC50 turned out to be 2.6 nM.

For the compound `CCCC1O[C@@H]2C[C@H]3[C@@H]4CCC5=CC(=O)C=C[C@]5(C)[C@@]4(F)[C@@H](O)C[C@]3(C)[C@]2(Sc2ccccn2)O1` (stereo partly drawn) [(20R,S)-16α,17α-Butylidenedioxy-9α-fluoro-11β-hydroxy-17β-(2-pyridylthio)androsta-1,4-dien-3-one], the IC50 is 11.3 nM.

With `CCC[C@H]1O[C@@H]2C[C@H]3[C@@H]4C[C@H](F)C5=CC(=O)CC[C@]5(C)[C@@]4(F)[C@@H](O)C[C@]3(C)[C@]2(SC)O1` [(20S)-16α,17α-Butylidenedioxy-6α,9α-difluoro-11β-hydroxy-17β-(methylthio)androst-4-ene-3-one], under setting [1], the IC50 is 2.9 nM.

On to `CCC[C@@H]1O[C@@H]2C[C@H]3[C@@H]4C[C@H](F)C5=CC(=O)C=C[C@]5(C)[C@@]4(F)[C@@H](O)C[C@]3(C)[C@]2(SCF)O1` [(20R)-16α,17α-Butylidenedioxy-6α,9α-difluoro-11β-hydroxy-17β-(fluoromethylthio)androsta-1,4-dien-3-one], for which the IC50 worked out at 2.7 nM.

With `CC1(C)O[C@@H]2C[C@H]3[C@@H]4CCC5=CC(=O)C=C[C@]5(C)[C@@]4(F)[C@@H](O)C[C@]3(C)[C@]2(S(C)(=O)=O)O1` [9α-Fluoro-11β-hydroxy-16α,17α-isopropylidene-dioxy-17β-methylsulphonylandrosta-1,4-dien-3-one], the IC50 under setting [1] amounted to 3.8 nM.

As to `CCC[C@@H]1O[C@@H]2C[C@H]3[C@@H]4C[C@H](F)C5=CC(=O)C=C[C@]5(C)[C@@]4(F)[C@@H](O)C[C@]3(C)[C@]2(SC)O1` [(20R)-16α,17α-butylidenedioxy-6α,9α-difluoro-11β-hydroxy-17β-(methylthio)-androsta-1,4-dien-3-one], the IC50 was 3.7 nM.

Take `CCC[C@@H]1O[C@@H]2C[C@H]3[C@@H]4C[C@H](F)C5=CC(=O)CC[C@]5(C)[C@@]4(F)[C@@H](O)C[C@]3(C)[C@]2(SCF)O1` [(20R)-6α,9α-Difluoro-11β-hydroxy-16α,17α-butylidenedioxy-17β-fluoromethylthioandrost-4-en-3-one]: the IC50 under setting [1] stood at 3 nM.

On to `CC1(C)O[C@@H]2C[C@H]3[C@@H]4C[C@H](F)C5=CC(=O)C=C[C@]5(C)[C@@]4(F)[C@@H](O)C[C@]3(C)[C@]2(SCF)O1` [6α,9α-Difluoro-11β-hydroxy-16α,17α-isopropylidenedioxy-17β-(fluoromethylthio)androsta-1,4-dien-3-one], for which the IC50 under setting [1] was determined as 4.1 nM.

Regarding `CCCC1O[C@@H]2C[C@H]3[C@@H]4CCC5=CC(=O)C=C[C@]5(C)[C@@]4(F)[C@@H](O)C[C@]3(C)[C@]2(SC(C)C)O1` (stereo partly drawn) [(20R,S)-16α,17α-Butylidenedioxy-9α-fluoro-11β-hydroxy-17β-(isopropylthio)androsta-1,4-dien-3-one], under setting [1], the IC50 was 5.5 nM.

Regarding `CCCC1O[C@@H]2C[C@H]3[C@@H]4CCC5=CC(=O)C=C[C@]5(C)[C@@]4(F)[C@@H](O)C[C@]3(C)[C@]2(SCC)O1` (stereo partly drawn) [(20R,S)-16α,17α-Butylidenedioxy-17β-ethylthio-9α-fluoro-11β-hydroxyandrosta-1,4-dien-3-one], the IC50 under setting [1] worked out at 4.1 nM.

For `CC1(C)O[C@@H]2C[C@H]3[C@@H]4CCC5=CC(=O)C=C[C@]5(C)[C@@]4(F)[C@@H](O)C[C@]3(C)[C@]2(Sc2ccccn2)O1` [9α-Fluoro-11β-hydroxy-16α,17α-isopropylidenedioxy-17β-(2-pyridylthio)androsta-1,4-dien-3-one], the IC50 under setting [1] was determined as 27 nM.

`CCC[C@@H]1O[C@@H]2C[C@H]3[C@@H]4CCC5=CC(=O)C=C[C@]5(C)[C@@]4(F)[C@@H](O)C[C@]3(C)[C@]2([S+](C)[O-])O1` (stereo partly drawn) [(20R)-9α-Fluoro-11β-hydroxy-16α,17α-butylidenedioxy-17β-methylsulphinylandrosta-1,4-dien-3-one]: under setting [2], the IC50 came out at 6.6 nM.

As to `CCC[C@@H]1O[C@@H]2C[C@H]3[C@@H]4CCC5=CC(=O)C=C[C@]5(C)[C@@]4(F)[C@@H](O)C[C@]3(C)[C@]2(SCF)O1` [(20R)-16α,17α-Butylidenedioxy-9α-fluoro-11β-hydroxy-17β-(fluoromethylthio)androsta-1,4-dien-3-one], under setting [1], the IC50 was determined as 7.5 nM.

As for `CCCC1O[C@@H]2C[C@H]3[C@@H]4CC(=O)C5=CC(=O)CC[C@]5(C)[C@@]4(F)[C@@H](O)C[C@]3(C)[C@]2(SC)O1` (stereo partly drawn) [(20S)-16α,17α-butylidenedioxy-6α,9α-fluoro-11β-hydroxy-(methylthio)androst-4-en-3,6-dione], the IC50 under setting [1] was found to be 3.4 nM.

For the compound `CCC[C@@H]1O[C@@H]2C[C@H]3[C@@H]4CCC5=CC(=O)C=C[C@]5(C)[C@@]4(F)[C@@H](O)C[C@]3(C)[C@]2(SC)O1` [(20R)-16α,17α-Butylidenedioxy-9α-fluoro-11β-hydroxy-17β-(methylthio)androsta-1,4-dien-3-one], under setting [1], the IC50 stood at 1.7 nM.

Turning to `CCC[C@H]1O[C@@H]2C[C@H]3[C@@H]4C[C@H](F)C5=CC(=O)C=C[C@]5(C)[C@@]4(F)[C@@H](O)C[C@]3(C)[C@]2(SCF)O1` [(20S)-6α,9α-difluoro-11β-hydroxy-16α,17α-butylidene-fluoromethylthioandrosta-1,4-dien-3-one], the IC50 under setting [2] was determined as 2.5 nM.

Take `CCC[C@@H]1O[C@@H]2C[C@H]3[C@@H]4C[C@H](F)C5CC(=O)CC[C@]5(C)[C@@]4(F)[C@@H](O)C[C@]3(C)[C@]2(SC)O1` (stereo partly drawn) [(20R)-16α,17α-butylidenedioxy-6α,9α-difluoro-11β-hydroxy-17β-(methylthio)androstan-3-one]: the IC50 under setting [1] came out at 2.6 nM.
